According to ChEMBL document CHEMBL1149151, “Macrocyclization in the design of non-phosphorus-containing Grb2 SH2 domain-binding ligands” (J Med Chem, 2004):
Where “and” joins values, the source holds several entries; their conditions need not be identical. Identical values can stand only once.

Columns and labels:
[1] = koff value surface plasmon resonance (SPR) method; format: ADME
[2] = kd value surface plasmon resonance (SPR) method; format: ADME
[3] = molecular target: T1, Growth factor receptor-bound protein 2 (Homo sapiens, UniProt P62993); assay: In vitro Growth factor receptor bound protein 2-binding affinity in surface plasmon resonance (SPR) method
T1 sequence (P62993 whole entry): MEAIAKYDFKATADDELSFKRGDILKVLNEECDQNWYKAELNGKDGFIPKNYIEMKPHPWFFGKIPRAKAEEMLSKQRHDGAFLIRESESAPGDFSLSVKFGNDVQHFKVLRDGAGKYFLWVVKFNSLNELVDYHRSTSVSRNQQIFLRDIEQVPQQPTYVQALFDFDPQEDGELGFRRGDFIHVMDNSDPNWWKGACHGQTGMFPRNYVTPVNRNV

[4] = molecular target: T1, Growth factor receptor-bound protein 2; assay: In vitro Growth factor receptor bound protein 2-binding affinity in ELISA method

Row | SMILES | Koff [1] | Kd [2] | IC50 [3] | IC50 [4]
1 | NC(=O)C[C@@H]1NC(=O)C2(CCCCC2)NC(=O)[C@@H](CC(=O)O)[C@@H](c2ccc(CP(=O)(O)O)cc2)/C=C/C[C@@H](Cc2cccc3ccccc23)CNC1=O | 0.0056 s⁻¹ | 0.9 nM | 1.4 nM and 12.1 nM | –
2 | NC(=O)C[C@@H]1NC(=O)C2(CCCCC2)NC(=O)[C@@H](CC(=O)O)[C@@H](c2ccc(C(C(=O)[O-])C(=O)[O-])cc2)/C=C/C[C@@H](Cc2cccc3ccccc23)CNC1=O.[Na+].[Na+] | 0.044 s⁻¹ | 12.1 nM | 12.1 nM | 4.3 nM
3 | NC(=O)C[C@H](NC(=O)C1(NC(=O)[C@H](Cc2ccc(C(C(=O)O)C(=O)O)cc2)NC(=O)C(=O)O)CCCCC1)C(=O)NCCCc1cccc2ccccc12 | – | – | – | 22.1 nM
4 | NC(=O)C[C@H](NC(=O)C1(NC(=O)[C@H](Cc2ccc(CP(=O)(O)O)cc2)NC(=O)C(=O)O)CCCCC1)C(=O)NCCCc1cccc2ccccc12 | 0.11 s⁻¹ | 128 nM | ~80 nM | 10 nM
